The values below come from US20090227799A1 (priority 2004, published 2009).

Values after ≈ are worked out from the molar mass of the structure shown.

The subject of this experiment is opfGWT1 expressing yeast. Description: Measurement of antimalarial agent activity using opfGWT1-expressing yeast (growth inhibition, MIC). The class given is cell-based. To be noted: Saccharomyces cerevisiae, 48 h, read-out: MIC (μg/m1) opfGWT1 […]; minimum concentration at which turbidity (660 nm) was 0.1 or less; SD culture medium, 96 well plate, 30° C. for 2 days; final highest concentration 25 μg/ml. On the procedure: Compounds having antimalarial activity were screened, using the opfGWT1 expressing yeast, which expresses the malaria protozoa GWT1 gene. The opfGWT1 expressing yeast was prepared according to the methods described in Example 1 to Example 3 of WO 2004/048567.
The test compound was serially diluted twice in SD culture medium (Sabouraud-dextrose culture medium) so that the final highest concentration was 25 μg/ml and dispensed into a 96 well plate so as to obtain 50 μl/well. An overnight culture solution of the opfGWT1 expressing yeast diluted to 1/1000 was added therein in the amount of 50 μl/well addition, the plate was incubated at 30° C. for 2 days, then turbidity at 660 nm was measured.
Regarding `Nc1ncccc1C(=O)NCc1ccc(Cc2cccc(Cl)c2)s1`, the MIC amounted to 12.5 µg/mL (≈ 34.9 µM).

Regarding `Nc1ncccc1C(=O)NCc1ccc(Cc2cccc(Cl)c2)o1` [Reference Example A-4, 2-Amino-N-(5-(3-chloro-benzyl)-furan-2-ylmethyl)-nicotinamide], the MIC amounted to 6.25 µg/mL (≈ 18.3 µM).

As for `Nc1ncccc1C(=O)NCc1ccc(Cc2cccc(F)c2)o1` [Reference Example A-6, 2-Amino-N-(5-(3-fluoro-benzyl)-furan-2-ylmethyl)-nicotinamide], the MIC stood at 25 µg/mL (≈ 76.8 µM).

`Nc1ccc(C(=O)NCc2ccc(Oc3ccccc3)s2)c(N)n1` [Reference Example A-54, 2,6-diamino-N-(5-phenoxy-thiophene-2-ylmethyl)-nicotinamide]: the MIC was 25 µg/mL (≈ 73.4 µM).

As for `Cc1cccc(Oc2ccc(CNC(=O)c3cccnc3N)s2)c1` [Reference Example A-64, 2-Amino-N-(5-m-tolyloxy-thiophen-2-ylmethyl)-nicotinamide], the MIC is 12.5 µg/mL (≈ 36.8 µM).

On to `Nc1ncccc1C(=O)NCc1ccc(Oc2ccccc2)s1` [Reference Example A-67, 2-Amino-N-(5-phenoxy-thiophen-2-ylmethyl)-nicotinamide], for which the MIC turned out to be 12.5 µg/mL (≈ 38.4 µM).

In the case of `Nc1ncccc1C(=O)NCc1ccc(Oc2cccc(F)c2)s1` [Reference Example A-68, 2-Amino-N-(5-(3-fluoro-phenoxy)-thiophen-2-ylmethyl)-nicotinamide], the MIC is 12.5 µg/mL (≈ 36.4 µM).

For the compound `Nc1ncccc1C(=O)NCc1ccc(Oc2ccc(F)cc2)s1` [Reference Example A-69, 2-Amino-N-(5-(4-fluoro-phenoxy)-thiophen-2-ylmethyl)-nicotinamide], the MIC was 25 µg/mL (≈ 72.8 µM).

As for `Nc1ncccc1C(=O)NCc1cc(Oc2ccccc2)cs1` [Reference Example A-72, 2-Amino-N-(4-phenoxy-thiophen-2-ylmethyl)-nicotinamide], the MIC stood at 12.5 µg/mL (≈ 38.4 µM).

For the compound `Nc1ncccc1C(=O)NCc1ccc(Oc2cccc(Cl)c2)s1` [Reference Example A-73, 2-Amino-N-(5-(3-chloro-phenoxy)-thiophen-2-ylmethyl)-nicotinamide], the MIC stood at 6.25 µg/mL (≈ 17.4 µM).

Consider `CC(=O)c1ccc(C(=O)NCc2ccc(Oc3ccccc3)s2)c(N)n1` [Reference Example A-98, 6-Acetyl-2-amino-N-(5-phenoxy-thiophen-2-ylmethyl)-nicotinamide], for which the MIC stood at 12.5 µg/mL (≈ 34 µM).

For `CCOCCNc1ccc(C(=O)NCc2ccc(Oc3ccccc3)s2)c(N)n1` [Reference Example A-105, 2-Amino-6-(2-ethoxy-ethylamino)-N-(5-phenoxy-thiophen-2-ylmethyl)-nicotinamide], the MIC amounted to 25 µg/mL (≈ 60.6 µM).

For `COCc1ccc(C(=O)NCc2ccc(Oc3cccc(F)c3)s2)c(N)n1` [Reference Example A-123, 2-Amino-N-(5-(3-fluoro-phenoxy)-thiophen-2-ylmethyl)-6-methoxymethyl-nicotinamide], the MIC was found to be 25 µg/mL (≈ 64.5 µM).

Regarding `C=Cc1ccc(C(=O)NCc2ccc(Oc3ccccc3)s2)c(N)n1` [Reference Example A-168, 2-Amino-N-(5-phenoxy-thiophen-2-ylmethyl)-6-vinyl-nicotinamide], the MIC came to 12.5 µg/mL (≈ 35.6 µM).

On to `Nc1ccc(C(=O)NCc2ccc(OCc3cccc(Cl)c3)cc2)c(N)n1` [Reference Example A-173, 2,6-Diamino-N-(4-(3-chloro-benzyloxy)-benzyl)-nicotinamide], for which the MIC was 12.5 µg/mL (≈ 32.6 µM).

`Nc1nc(CCF)ccc1C(=O)NCc1ccc(Oc2ccccc2)s1` [Reference Example A-177, 2-Amino-6-(2-fluoro-ethyl)-N-(5-phenoxy-thiophen-2-ylmethyl)-nicotinamide]: the MIC worked out at 25 µg/mL (≈ 67.3 µM).

For `CCCCOCc1ccc(CNC(=O)c2ccc(COC)nc2N)cc1` [Reference Example A-182], the MIC amounted to 6.25 µg/mL (≈ 17.5 µM).

Turning to `CCCCOc1ccc(CNC(=O)c2ccc(COC)nc2N)cc1` [Reference Example A-188, 2-Amino-N-(4-butoxy-benzyl)-6-methoxymethyl-nicotinamide], the MIC was determined as 6.25 µg/mL (≈ 18.2 µM).

Take `O=C(NCc1ccc(Oc2cccc(F)c2)s1)c1ccc2ncccc2c1` [Reference Example E-65, Quinoline-6-carboxylic acid (5-(3-fluorophenoxy)thiophen-2-ylmethyl)amide]: the MIC is 25 µg/mL (≈ 66.1 µM).
